Test results as given in patent US6525063B2, “Antitumour 1,5-diazaanthraquinones” (Universidad Complutense de Madrid, priority 1998, dated 2003).
pIC50: −log10 of the molar value.

Experiments:
[1] = test system: P388 (ATCC CCL-46) cells; assay: in vitro cytotoxic assay, P388 cells; type: cell-based; conditions: 72 h; P388 lymphoid neoplasm from DBA/2 mouse, suspension culture; three days of incubation; approximate IC50 by growth vs control
Protocol: (§1) Cells were maintained in logarithmic phase of growth in Eagle's Minimum Essential Medium, with Earle's Balanced Salts, with 2.0 mM L-glutamine, with non-essential amino acids, without sodium bicarbonate (EMEM/neaa); supplemented with 10% Fetal Calf Serum (FCS), 10^−2 M sodium bicarbonate and 0,1 g/l penicillin-G+streptomycin sulfate.
(§2) A screening procedure has been carried out to determine and compare the antitumour activity of these compounds, using an adapted form of the method described by Raymond J. Bergeron, Paul F. Cavanaugh Jr., Steven J. Kline, Robert G. Hughes, Jr., Gary T. Elliot and Carl W. Porter. Antineoplastic and antiherpetic activity of spermidine catecholamide iron chelators. Biochem. Bioph. Res. Comm. 1984, 121, 848-854. The antitumour cells employed were P388 (ATCC CCL-46) (suspension culture of a lymphoid neoplasm from DBA/2 mouse), A549 (ATCC CCL-185) (monolayer culture of a human lung carcinoma), HT-29 (ATCC HTB-38) (monolayer culture of a human colon carcinoma) and SK-MEL-28 (ATCC HTB-72) (monolayer culture of a human melanoma).
P388 (ATCC CCL-46) cells were seeded into 16 mm wells at 1×10^4 cells per well in 1 ml aliquots of MEM 5FCS containing the indicated concentration of drug. A separate set of cultures without drug was seeded as control growth to ensure that cells remained in exponential phase of growth. All determinations were carried out in duplicate.
(§3) The results of the in vitro cytotoxic assays for these compounds (4a), (4b), (4c), (4d), (11a), (12a), (13a), (13b), and (14a) with the cellular lines P388 (ATCC CCL-46), A549 (ATCC CCL-185), HT-29 (ATCC HTB-38) and SK-MEL-28 (ATCC HTB-72) are shown in the following Table.

[2] = test system: A549 (ATCC CCL-185) cells; assay: in vitro cytotoxic assay, A549 cells; type: cell-based; conditions: 72 h; A549 human lung carcinoma monolayer; three days of incubation; Crystal Violet staining; approximate IC50
Protocol: as §1, §2
(§4) A549 (ATCC CCL-185), HT-29 (ATCC HTB-38) and SK-MEL-28 (ATCC HTB-72) cells were seeded into 16 mm wells at 2×10^4 cells per well in 1 ml aliquots of MEM 10FCS containing the indicated concentration of drug. A separate set of cultures without drug was seeded as control growth to ensure that cells remained in exponential phase of growth. All determinations were carried out in duplicate. After three days of incubation at 37° C., 10% CO2 in a 98% humid atmosphere, the wells were stained with 0.1% Crystal Violet. An approximately IC50 was determined by comparing the growth in wells with drug to the growth in wells control.
as §3

[3] = test system: HT-29 (ATCC HTB-38) cells; assay: in vitro cytotoxic assay, HT-29 cells; type: cell-based; conditions: 72 h; HT-29 human colon carcinoma monolayer; three days of incubation; Crystal Violet staining; approximate IC50
Protocol: as §1, §2, §4, §3

[4] = test system: SK-MEL-28 (ATCC HTB-72) cells; assay: in vitro cytotoxic assay, SK-MEL-28 cells; type: cell-based; conditions: 72 h; SK-MEL-28 human melanoma monolayer; three days of incubation; Crystal Violet staining; approximate IC50
Protocol: as §1, §2, §4, §3

SMILES | melting point [°C] | pIC50 [1] | pIC50 [2] | pIC50 [3] | pIC50 [4]
O=C1c2nccc(-c3ccccc3[N+](=O)[O-])c2C(=O)c2nccc(Cl)c21 [(13b), 4-Chloro-8-(o-nitrophenyl)-1,5-diazaanthraquinone] | – | 6.57 | 7.52 | 6.57 | 7.15
Cc1ccnc2c1C(=O)c1nccc(N(C)C)c1C2=O [(14a), 4-Dimethylamino-8-methyl-1,5-diazaanthraquinone] | 97 to 100 | 5.03 | 6.43 | 6.03 | 6.43
Cc1ccnc2c1C(=O)c1nccc(Cl)c1C2=O [(13a), 4-Chloro-8-methyl-1,5-diazaanthraquinone] | > 300 | 5.41 | 6.72 | 5.71 | 6.72
CC1C=CN(N(C)C)C2=C1C(=O)c1nccc(Cl)c1C2=O (stereo not shown) [(12a), 8-Chloro-1-dimethylamino-4-methyl-1,4-dihydro-1,5-diazaanthraquinone] | – | 5.48 | 6.48 | 5.78 | 6.48

Further lines, with some results ahead:

melting point [°C] | SMILES | pIC50 [1] | pIC50 [2] | pIC50 [3] | pIC50 [4]
> 300 | Cc1cnc2c(c1)C(=O)c1ncc(C)cc1C2=O [(4b), 3,7-Dimethyl-1,5-diazaanthraquinone] | 5.13 | 7.30 | 6.29 | 6.96
180 to 182 | CCc1c(C)cnc2c1C(=O)c1ncc(C)c(CC)c1C2=O [(4d), 4,8-Diethyl-3,7-dimethyl-1,5-diazaanthraquinone] | 5.47 | 5.47 | 5.47 | 5.47
208 to 210 | Cc1cnc2c(c1)C(=O)c1nccc(Cl)c1C2=O [(11a), 8-Chloro-3-methyl-1,5-diazaanthraquinone] | 6.82 | 7.52 | 7.40 | 7.52
253 to 254 | Cc1ccnc2c1C(=O)c1nccc(C)c1C2=O [(4c), 4,8-Dimethyl-1,5-diazaanthraquinone] | 5.38 | 6.30 | 5.98 | 5.98
218 to 220 | CCc1cnc2c(c1)C(=O)c1ncc(CC)cc1C2=O [(4a), 3,7-Diethyl-1,5-diazaanthraquinone] | 6.35 | 7.30 | 6.72 | 7.30
